According to publication PMC9115112, “A2B adenosine receptor antagonists rescue lymphocyte activity in adenosine-producing patient-derived cancer models” (Journal for Immunotherapy of Cancer, 2022):

Tests used:
[1] = molecular target: T1, human A3AR (Homo sapiens, UniProt P0DMS8); test: Radioligand binding, human A3AR ([3H]NECA, transfected HeLa cells); details: displacement of [3H]NECA, n=3, racemic mixtures, read-out: Ki hA3
T1 construct: expressed in transfected cells; host or cells: HeLa
T1 sequence (P0DMS8 1-318): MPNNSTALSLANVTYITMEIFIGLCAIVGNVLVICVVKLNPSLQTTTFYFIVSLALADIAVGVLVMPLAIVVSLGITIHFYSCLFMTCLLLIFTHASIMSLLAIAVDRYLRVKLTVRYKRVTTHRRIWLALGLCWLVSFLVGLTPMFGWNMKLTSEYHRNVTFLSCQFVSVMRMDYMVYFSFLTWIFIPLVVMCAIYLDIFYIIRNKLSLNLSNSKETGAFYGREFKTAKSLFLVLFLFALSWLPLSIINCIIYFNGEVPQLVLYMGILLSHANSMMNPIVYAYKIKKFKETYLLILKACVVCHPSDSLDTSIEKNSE
Method: (§1) The affinity and selectivity profiles of the ligands obtained was studied in vitro, radioligand binding assays, at the four human specific ARs subtypes, using experimental protocols previously described.[28–30] All ligands were prepared and tested as racemic mixtures. […] Non-specific binding was determined in the presence of R-PIA 10 µM for A1AR, NECA 50 µM for A2AAR, NECA 400 μΜ for A2BAR and R-PIA 100 μΜ for A3AR.

[2] = molecular target: T2, human A2AAR (Homo sapiens, UniProt P29274); test: Radioligand binding, human A2AAR ([3H]ZM241385, transfected HeLa cells); details: displacement of [3H]ZM241385, human HeLa cells, n=3, racemic mixtures; read-out: Ki hA2A
T2 construct: expressed in transfected cells; host or cells: HeLa
T2 sequence (P29274 whole entry): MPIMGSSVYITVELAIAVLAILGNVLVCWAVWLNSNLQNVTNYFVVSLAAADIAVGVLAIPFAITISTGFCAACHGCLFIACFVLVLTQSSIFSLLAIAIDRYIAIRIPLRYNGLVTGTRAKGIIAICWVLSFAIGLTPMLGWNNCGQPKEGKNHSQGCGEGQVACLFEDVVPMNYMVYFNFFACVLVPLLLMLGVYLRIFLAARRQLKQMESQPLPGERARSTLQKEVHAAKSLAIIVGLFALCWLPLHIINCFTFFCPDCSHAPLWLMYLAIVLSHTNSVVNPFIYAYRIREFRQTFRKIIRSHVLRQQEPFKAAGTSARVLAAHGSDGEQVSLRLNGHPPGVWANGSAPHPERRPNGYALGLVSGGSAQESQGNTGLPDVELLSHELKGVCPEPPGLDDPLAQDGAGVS
Method: as §1

[3] = molecular target: T3, human A1AR (Homo sapiens, UniProt P30542); test: Radioligand binding, human A1AR ([3H]DPCPX, transfected CHO cells); details: displacement of [3H]DPCPX, transfected CHO cells, n=3, racemic mixtures; read-out: Ki hA1
T3 construct: expressed in transfected cells; host or cells: CHO
T3 sequence (P30542 1-326): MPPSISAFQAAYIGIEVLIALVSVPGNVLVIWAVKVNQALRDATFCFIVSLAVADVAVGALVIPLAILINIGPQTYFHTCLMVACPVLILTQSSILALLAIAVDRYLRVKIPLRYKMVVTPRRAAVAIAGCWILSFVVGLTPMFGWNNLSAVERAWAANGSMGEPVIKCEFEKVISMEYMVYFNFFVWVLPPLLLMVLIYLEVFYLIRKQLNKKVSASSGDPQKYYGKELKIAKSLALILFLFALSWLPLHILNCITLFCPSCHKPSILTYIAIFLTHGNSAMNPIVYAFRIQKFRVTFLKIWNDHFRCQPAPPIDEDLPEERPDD
Method: as §1

[4] = molecular target: T4, human A2BAR (Homo sapiens, UniProt P29275); test: Radioligand binding, human A2BAR ([3H]DPCPX, transfected HEK-293 cells); details: displacement of [3H]DPCPX, human HEK-293 cells, n=3, racemic mixtures; read-out: Ki hA2B
T4 construct: expressed in transfected cells; host or cells: HEK-293
T4 sequence (P29275 1-332): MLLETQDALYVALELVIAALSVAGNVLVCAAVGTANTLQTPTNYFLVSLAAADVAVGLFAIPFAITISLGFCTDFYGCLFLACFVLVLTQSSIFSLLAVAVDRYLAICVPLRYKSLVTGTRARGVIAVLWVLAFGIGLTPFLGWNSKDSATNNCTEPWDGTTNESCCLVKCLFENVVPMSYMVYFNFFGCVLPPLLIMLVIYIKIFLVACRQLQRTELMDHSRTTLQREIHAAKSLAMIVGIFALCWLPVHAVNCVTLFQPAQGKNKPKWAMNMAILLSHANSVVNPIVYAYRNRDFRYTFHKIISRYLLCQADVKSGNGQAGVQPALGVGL
Method: as §1

Measured: Ki

CC1=C(C(=O)OC(C)C)C(c2ccco2)N2C(=N1)N(Cc1ccccc1F)c1ccccc12 (stereo not shown) [ISAM-R56B]
> 1 µM: all assays above
